Test results as given in ChEMBL document CHEMBL3885881, “DrugMatrix”.

Organism: Rattus norvegicus
Experiment: DrugMatrix - Regimen: Daily Repeat
Assay type: toxicity, organism-based, Sprague-Dawley
Design: regimen Daily Repeat, gender Male, age 6-8 weeks
Conditions: in vivo, po, 62 mg/kg, route oral GAVAGE, dose level High, […]; for ABSOLUTE BASOPHIL / ABSOLUTE EOSINOPHIL / ABSOLUTE LYMPHOCYTE / ABSOLUTE MONOCYTE / ABSOLUTE SEGMENTED NEUTROPHIL / BASOPHIL / EOSINOPHIL / ERYTHROCYTE COUNT / HEMATOCRIT / HEMOGLOBIN / LEUKOCYTE COUNT / LYMPHOCYTE / MEAN CORPUSCULAR HEMOGLOBIN / MEAN CORPUSCULAR HEMOGLOBIN CONCENTRATION / MEAN CORPUSCULAR VOLUME / MONOCYTE / NEUTROPHIL / NUCLEATED RED BLOOD CELLS / PLATELET COUNT: tissue Blood; for ALANINE AMINOTRANSFERASE / ALBUMIN / ALKALINE PHOSPHATASE / ASPARTATE AMINOTRANSFERASE / BLOOD UREA NITROGEN / CARBON DIOXIDE / CHLORIDE / CHOLESTEROL / CREATINE PHOSPHOKINASE / CREATININE / GLUCOSE / LACTATE DEHYDROGENASE / LIPASE / PHOSPHORUS / POTASSIUM / SODIUM / TOTAL BILIRUBIN / TOTAL PROTEIN / URIC ACID: tissue Plasma

With `CCCSc1ccc2nc(NC(=O)OC)[nH]c2c1` [ALBENDAZOLE] the “ABSOLUTE BASOPHIL” value (72 h, time 3 day) was 0 CELLS/uL, the “ABSOLUTE EOSINOPHIL” value (72 h, time 3 day) was 0 CELLS/uL and the “ABSOLUTE LYMPHOCYTE” value (72 h, time 3 day) was 10254.67 CELLS/uL. For the same compound, the “ABSOLUTE MONOCYTE” value (72 h, time 3 day) was 0 CELLS/uL, the “ABSOLUTE SEGMENTED NEUTROPHIL” value (72 h, time 3 day) was 712 CELLS/uL and the BASOPHIL (72 h, time 3 day) was 0%. The EOSINOPHIL (72 h, time 3 day) was 0%, the “ERYTHROCYTE COUNT” value (72 h, time 3 day) was 5.64 x10E6/uL and the HEMATOCRIT (72 h, time 3 day) was 34.47%. The HEMOGLOBIN (72 h, time 3 day) was 13.47 G/DL, the “LEUKOCYTE COUNT” value (72 h, time 3 day) was 10.97 x10E3/uL and the LYMPHOCYTE (72 h, time 3 day) was 94%. The “MEAN CORPUSCULAR HEMOGLOBIN” value (72 h, time 3 day) was 24 pg, the “MEAN CORPUSCULAR HEMOGLOBIN CONCENTRATION” value (72 h, time 3 day) was 39.13 G/DL and the “MEAN CORPUSCULAR VOLUME” value (72 h, time 3 day) was 61.27 fL. The MONOCYTE (72 h, time 3 day) was 0%, the NEUTROPHIL (72 h, time 3 day) was 6% and the “NUCLEATED RED BLOOD CELLS” value (72 h, time 3 day) was 0 /100WBC. The “PLATELET COUNT” value (72 h, time 3 day) was 1007.33 x10E3/uL, the “ALANINE AMINOTRANSFERASE” value (72 h, time 3 day) was 44 u/L and the ALBUMIN (72 h, time 3 day) was 4.13 G/DL. The “ALKALINE PHOSPHATASE” value (72 h, time 3 day) was 381 u/L, the “ASPARTATE AMINOTRANSFERASE” value (72 h, time 3 day) was 99.67 u/L and the “BLOOD UREA NITROGEN” value (72 h, time 3 day) was 11 mg/dL. The “CARBON DIOXIDE” value (72 h, time 3 day) was 27.33 mmol/L, the CHLORIDE (72 h, time 3 day) was 101.33 MEQ/L and the CHOLESTEROL (72 h, time 3 day) was 99 mg/dL. For the same compound, the “CREATINE PHOSPHOKINASE” value (72 h, time 3 day) was 278 u/L, the CREATININE (72 h, time 3 day) was 0.13 mg/dL and the GLUCOSE (72 h, time 3 day) was 161.33 mg/dL. For the same compound, the “LACTATE DEHYDROGENASE” value (72 h, time 3 day) was 198.67 u/L, the LIPASE (72 h, time 3 day) was 11.67 u/L and the PHOSPHORUS (72 h, time 3 day) was 10.53 mg/dL. The POTASSIUM (72 h, time 3 day) was 5.98 MEQ/L, the SODIUM (72 h, time 3 day) was 141.53 MEQ/L and the “TOTAL BILIRUBIN” value (72 h, time 3 day) was 0.17 mg/dL. The “TOTAL PROTEIN” value (72 h, time 3 day) was 5.8 G/DL, the “URIC ACID” value (72 h, time 3 day) was 1.43 mg/dL and the “ABSOLUTE BASOPHIL” value (120 h, time 5 day) was 0 CELLS/uL. For the same compound, the “ABSOLUTE EOSINOPHIL” value (120 h, time 5 day) was 0 CELLS/uL, the “ABSOLUTE LYMPHOCYTE” value (120 h, time 5 day) was 7019.67 CELLS/uL and the “ABSOLUTE MONOCYTE” value (120 h, time 5 day) was 23.67 CELLS/uL. The “ABSOLUTE SEGMENTED NEUTROPHIL” value (120 h, time 5 day) was 190 CELLS/uL, the BASOPHIL (120 h, time 5 day) was 0% and the EOSINOPHIL (120 h, time 5 day) was 0%. The “ERYTHROCYTE COUNT” value (120 h, time 5 day) was 5.03 x10E6/uL, the HEMATOCRIT (120 h, time 5 day) was 31% and the HEMOGLOBIN (120 h, time 5 day) was 12.5 G/DL. For the same compound, the “LEUKOCYTE COUNT” value (120 h, time 5 day) was 7.23 x10E3/uL, the LYMPHOCYTE (120 h, time 5 day) was 97% and the “MEAN CORPUSCULAR HEMOGLOBIN” value (120 h, time 5 day) was 24.9 pg. For the same compound, the “MEAN CORPUSCULAR HEMOGLOBIN CONCENTRATION” value (120 h, time 5 day) was 40.33 G/DL, the “MEAN CORPUSCULAR VOLUME” value (120 h, time 5 day) was 61.77 fL and the MONOCYTE (120 h, time 5 day) was 0.33%. The NEUTROPHIL (120 h, time 5 day) was 2.67%, the “NUCLEATED RED BLOOD CELLS” value (120 h, time 5 day) was 0 /100WBC and the “PLATELET COUNT” value (120 h, time 5 day) was 1425 x10E3/uL. For the same compound, the “ALANINE AMINOTRANSFERASE” value (120 h, time 5 day) was 29.33 u/L, the ALBUMIN (120 h, time 5 day) was 4.03 G/DL and the “ALKALINE PHOSPHATASE” value (120 h, time 5 day) was 247.67 u/L. For the same compound, the “ASPARTATE AMINOTRANSFERASE” value (120 h, time 5 day) was 66.33 u/L, the “BLOOD UREA NITROGEN” value (120 h, time 5 day) was 12.33 mg/dL and the “CARBON DIOXIDE” value (120 h, time 5 day) was 24.33 mmol/L. For the same compound, the CHLORIDE (120 h, time 5 day) was 101.33 MEQ/L, the CHOLESTEROL (120 h, time 5 day) was 90.67 mg/dL and the “CREATINE PHOSPHOKINASE” value (120 h, time 5 day) was 237.67 u/L. For the same compound, the CREATININE (120 h, time 5 day) was 0.11 mg/dL, the GLUCOSE (120 h, time 5 day) was 141.33 mg/dL and the “LACTATE DEHYDROGENASE” value (120 h, time 5 day) was 106.33 u/L. For the same compound, the LIPASE (120 h, time 5 day) was 11 u/L, the PHOSPHORUS (120 h, time 5 day) was 11.33 mg/dL and the POTASSIUM (120 h, time 5 day) was 6.31 MEQ/L. For the same compound, the SODIUM (120 h, time 5 day) was 141.93 MEQ/L, the “TOTAL BILIRUBIN” value (120 h, time 5 day) was 0.27 mg/dL and the “TOTAL PROTEIN” value (120 h, time 5 day) was 5.37 G/DL. The “URIC ACID” value (120 h, time 5 day) was 1.77 mg/dL.
